Source: ChEMBL document CHEMBL1146304, “Alpha-methyltryptamine sulfonamide derivatives as novel glucocorticoid receptor ligands” (Bioorg Med Chem Lett, 2007)

Tests used:
Glucocorticoid receptor = target: T1, Glucocorticoid receptor (Homo sapiens, UniProt P04150)
T1 sequence (P04150 whole entry): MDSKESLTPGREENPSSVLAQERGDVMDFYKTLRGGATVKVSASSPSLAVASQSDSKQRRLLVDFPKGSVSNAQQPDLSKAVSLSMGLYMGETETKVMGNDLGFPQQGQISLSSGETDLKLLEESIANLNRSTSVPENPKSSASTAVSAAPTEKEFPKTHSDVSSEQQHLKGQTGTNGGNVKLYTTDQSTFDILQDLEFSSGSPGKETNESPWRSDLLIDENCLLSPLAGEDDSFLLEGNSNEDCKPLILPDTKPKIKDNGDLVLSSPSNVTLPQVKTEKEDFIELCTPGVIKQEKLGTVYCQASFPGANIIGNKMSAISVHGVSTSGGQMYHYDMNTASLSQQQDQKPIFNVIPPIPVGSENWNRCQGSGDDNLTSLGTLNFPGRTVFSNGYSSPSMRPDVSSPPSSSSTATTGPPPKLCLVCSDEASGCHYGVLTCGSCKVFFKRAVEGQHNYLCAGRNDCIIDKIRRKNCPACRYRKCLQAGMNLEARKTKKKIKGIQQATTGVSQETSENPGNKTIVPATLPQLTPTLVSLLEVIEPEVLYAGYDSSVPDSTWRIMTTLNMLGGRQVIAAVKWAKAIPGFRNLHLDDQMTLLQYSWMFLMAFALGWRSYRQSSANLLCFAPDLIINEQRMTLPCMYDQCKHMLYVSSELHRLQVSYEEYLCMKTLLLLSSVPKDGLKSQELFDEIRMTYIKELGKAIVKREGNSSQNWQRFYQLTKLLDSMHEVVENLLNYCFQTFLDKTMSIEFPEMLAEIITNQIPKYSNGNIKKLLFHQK

[1] = target: T2, Mineralocorticoid receptor (Homo sapiens, UniProt P08235); assay: Inhibition of human MR
T2 sequence (P08235 whole entry): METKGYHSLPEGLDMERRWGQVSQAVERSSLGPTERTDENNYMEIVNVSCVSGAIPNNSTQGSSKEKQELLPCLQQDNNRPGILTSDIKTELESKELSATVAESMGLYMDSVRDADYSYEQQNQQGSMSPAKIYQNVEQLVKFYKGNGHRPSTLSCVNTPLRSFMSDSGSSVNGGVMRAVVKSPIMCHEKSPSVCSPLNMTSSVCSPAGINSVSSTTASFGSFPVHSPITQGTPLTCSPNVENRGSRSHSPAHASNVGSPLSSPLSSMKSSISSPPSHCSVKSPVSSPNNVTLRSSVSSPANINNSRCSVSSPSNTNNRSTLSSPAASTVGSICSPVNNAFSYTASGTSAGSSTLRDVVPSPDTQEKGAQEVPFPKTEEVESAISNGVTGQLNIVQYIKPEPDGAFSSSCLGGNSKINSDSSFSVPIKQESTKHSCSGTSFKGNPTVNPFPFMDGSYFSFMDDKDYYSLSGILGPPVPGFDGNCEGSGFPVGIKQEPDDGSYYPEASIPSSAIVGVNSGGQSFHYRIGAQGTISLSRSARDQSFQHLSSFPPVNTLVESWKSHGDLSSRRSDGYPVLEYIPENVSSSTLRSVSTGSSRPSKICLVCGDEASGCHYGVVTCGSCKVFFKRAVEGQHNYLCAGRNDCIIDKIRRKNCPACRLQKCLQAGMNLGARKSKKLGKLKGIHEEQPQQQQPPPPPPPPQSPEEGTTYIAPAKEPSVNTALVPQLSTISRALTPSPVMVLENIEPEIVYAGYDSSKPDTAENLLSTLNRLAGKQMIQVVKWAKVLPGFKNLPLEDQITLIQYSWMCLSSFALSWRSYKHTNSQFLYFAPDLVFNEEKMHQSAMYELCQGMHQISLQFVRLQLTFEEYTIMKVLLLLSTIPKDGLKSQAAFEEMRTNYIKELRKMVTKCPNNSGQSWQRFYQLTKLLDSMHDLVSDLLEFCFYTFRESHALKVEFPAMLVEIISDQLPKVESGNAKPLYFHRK

Progesterone receptor = target: T3, Progesterone receptor (Homo sapiens, UniProt P06401); assay: Inhibition of human PR
T3 sequence (P06401 whole entry): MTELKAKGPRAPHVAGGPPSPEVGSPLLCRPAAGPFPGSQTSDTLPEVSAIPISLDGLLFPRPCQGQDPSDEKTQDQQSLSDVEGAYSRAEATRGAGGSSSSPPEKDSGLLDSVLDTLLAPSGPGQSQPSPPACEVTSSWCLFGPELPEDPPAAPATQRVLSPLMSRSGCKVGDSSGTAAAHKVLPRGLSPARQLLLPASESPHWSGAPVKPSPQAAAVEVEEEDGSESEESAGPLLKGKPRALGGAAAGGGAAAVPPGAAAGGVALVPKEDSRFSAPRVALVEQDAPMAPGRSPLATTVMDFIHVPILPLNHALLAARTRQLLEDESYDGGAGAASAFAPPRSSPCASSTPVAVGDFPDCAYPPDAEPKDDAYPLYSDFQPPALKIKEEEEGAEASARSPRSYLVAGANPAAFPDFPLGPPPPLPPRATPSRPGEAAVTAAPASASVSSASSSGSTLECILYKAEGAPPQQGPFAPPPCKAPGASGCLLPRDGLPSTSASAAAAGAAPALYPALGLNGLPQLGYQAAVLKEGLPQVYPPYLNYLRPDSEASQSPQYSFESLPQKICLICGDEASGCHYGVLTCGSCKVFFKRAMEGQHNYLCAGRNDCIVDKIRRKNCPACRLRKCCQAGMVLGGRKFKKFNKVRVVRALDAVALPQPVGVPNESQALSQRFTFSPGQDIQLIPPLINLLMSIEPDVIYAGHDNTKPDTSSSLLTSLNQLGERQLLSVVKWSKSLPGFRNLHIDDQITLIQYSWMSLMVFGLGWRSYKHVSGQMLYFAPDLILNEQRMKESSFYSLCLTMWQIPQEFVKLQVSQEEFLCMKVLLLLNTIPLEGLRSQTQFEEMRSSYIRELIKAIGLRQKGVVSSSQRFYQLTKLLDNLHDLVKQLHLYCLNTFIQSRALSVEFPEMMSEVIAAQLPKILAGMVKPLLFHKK

Homo sapiens = organism: Homo sapiens; assay: Selectivity for human glucocorticoid receptor over human mineralocorticoid receptor

Structure (SMILES)	IC50 (Glucocorticoid receptor) [nM]	further results
Cc1cc(C)c(S(=O)(=O)N(C)C(C)Cc2c[nH]c3ccccc23)c(C)c1 (configuration not stated)	1300	
CC(Cc1c[nH]c2ccccc12)NS(=O)(=O)c1ccc(Cl)c(Cl)c1 (configuration not stated)	6900	
Cc1cccc(S(=O)(=O)NC(C)Cc2c[nH]c3ccccc23)c1 (configuration not stated)	> 10000	
Cc1c(Cl)cccc1S(=O)(=O)NC(C)Cc1c[nH]c2ccccc12 (configuration not stated)	820	
COc1ccc(S(=O)(=O)NC(C)Cc2c[nH]c3ccccc23)cc1 (configuration not stated)	> 10000	
Cc1cc(C)c(S(=O)(=O)NC(C)Cc2c[nH]c3cc(C)ccc23)c(C)c1 (configuration not stated)	490	
CC(Cc1c[nH]c2ccccc12)NS(=O)(=O)c1ccc([N+](=O)[O-])cc1 (configuration not stated)	> 10000	
Cc1ccc(S(=O)(=O)NC(C)Cc2c[nH]c3ccccc23)cc1 (configuration not stated)	5700	
Cc1cc(C)c(S(=O)(=O)NC(C)Cc2c[nH]c3c(C)cccc23)c(C)c1 (configuration not stated)	120	
CC(Cc1c[nH]c2ccccc12)NS(=O)(=O)c1c(Cl)cccc1Cl (configuration not stated)	240	IC50 [1]: 1600 nM; IC50 (Progesterone receptor): 170 nM; Ratio IC50 (Homo sapiens): 6
CC(Cc1c[nH]c2ccccc12)NC(=O)Nc1c(Cl)cc(Cl)cc1Cl (configuration not stated)	> 2000	
CC(Cc1c[nH]c2ccccc12)NS(=O)(=O)c1cc(Cl)c(Cl)cc1Cl (configuration not stated)	990	IC50 [1]: 1000 nM; IC50 (Progesterone receptor): 440 nM
CC(Cc1c[nH]c2ccccc12)NS(=O)(=O)c1cccc(Cl)c1Cl (configuration not stated)	1200	
CC(Cc1c[nH]c2ccccc12)NS(=O)(=O)c1cc(Cl)ccc1Cl (configuration not stated)	1300	
CC(=O)Nc1ccc(S(=O)(=O)NC(C)Cc2c[nH]c3ccccc23)cc1 (configuration not stated)	> 10000	
CC(Cc1c[nH]c2ccccc12)NS(=O)(=O)c1ccc(Cl)c(Cl)c1Cl (configuration not stated)	1900	
CC(Cc1c[nH]c2ccccc12)NS(=O)(=O)c1cc(Cl)cc(Cl)c1O (configuration not stated)	> 10000	
CC(Cc1c[nH]c2ccccc12)NS(=O)(=O)c1cccc(Cl)c1 (configuration not stated)	4100	
CC(Cc1c[nH]c2ccccc12)NS(=O)(=O)c1ccc(C(C)(C)C)cc1 (configuration not stated)	735	IC50 [1]: 1070 nM; IC50 (Progesterone receptor): > 2000 nM
COc1ccc2[nH]cc(CC(C)NS(=O)(=O)c3c(Cl)cc(Cl)cc3Cl)c2c1 (configuration not stated)	> 2000	
Cc1[nH]c2ccccc2c1CC(C)NS(=O)(=O)c1c(Cl)cc(Cl)cc1Cl (configuration not stated)	570	
CC(Cc1c[nH]c2ccccc12)NS(=O)(=O)c1ccc(-c2ccccc2)cc1 (configuration not stated)	2600	
CC(Cc1c[nH]c2ccccc12)NS(=O)(=O)c1cc(Cl)cc(Cl)c1 (configuration not stated)	4600	
CC(Cc1c[nH]c2ccccc12)NS(=O)(=O)c1cccc(C#N)c1 (configuration not stated)	> 10000	
Cc1cc(C)c(S(=O)(=O)N[C@@H](C)Cc2c[nH]c3ccccc23)c(C)c1	29	IC50 [1]: 1000 nM; IC50 (Progesterone receptor): 1200 nM; Ratio IC50 (Homo sapiens): 34

Structure (SMILES)	IC50 (Glucocorticoid receptor) [nM]	further results
COC(=O)[C@@H](Cc1c[nH]c2ccccc12)NS(=O)(=O)c1c(C)cc(C)cc1C	> 2000	
CC(Cc1c[nH]c2ccccc12)NS(=O)(=O)c1ccc(Cl)cc1Cl (configuration not stated)	480	IC50 [1]: 850 nM; IC50 (Progesterone receptor): > 2000 nM
Cc1cc(C)c(CNC(C)Cc2c[nH]c3ccccc23)c(C)c1 (configuration not stated)	> 2000	
CC(Cc1c[nH]c2ccccc12)NS(=O)(=O)c1c(C(C)C)cc(C(C)C)cc1C(C)C (configuration not stated)	67	IC50 [1]: > 2000 nM; IC50 (Progesterone receptor): > 2000 nM
Cc1cc(C)c(S(=O)(=O)NC(C)Cc2cc3ccccc3[nH]2)c(C)c1 (configuration not stated)	> 2000	
CC(Cc1c[nH]c2ccccc12)NS(=O)(=O)c1ccccc1 (configuration not stated)	> 10000	
Cc1cc(C)c(S(=O)(=O)NC(C)Cc2c[nH]c3ccc(F)cc23)c(C)c1 (configuration not stated)	65	
CC(Cc1c[nH]c2ccccc12)NS(=O)(=O)c1ccc(Cl)cc1 (configuration not stated)	2100	
CCC(Cc1c[nH]c2ccccc12)NS(=O)(=O)c1c(Cl)cc(Cl)cc1Cl (configuration not stated)	64	
Cc1cc(C)c(S(=O)(=O)NC(C)Cc2c[nH]c3cc(F)ccc23)c(C)c1 (configuration not stated)	79	
CC(Cc1c[nH]c2ccccc12)NS(=O)(=O)c1ccccc1[N+](=O)[O-] (configuration not stated)	> 10000	
CCCc1ccc(S(=O)(=O)NC(C)Cc2c[nH]c3ccccc23)cc1 (configuration not stated)	1600	
CC(Cc1c[nH]c2ccccc12)NS(=O)(=O)c1ccc(C(C)C)cc1 (configuration not stated)	750	IC50 [1]: 1400 nM; IC50 (Progesterone receptor): 1000 nM
Cc1cc(C)c(S(=O)(=O)NC(CO)Cc2c[nH]c3ccccc23)c(C)c1 (configuration not stated)	> 2000	
C[C@@H]1C[C@H]2[C@@H]3CCC4=CC(=O)C=C[C@]4(C)[C@@]3(F)[C@@H](O)C[C@]2(C)[C@@]1(O)C(=O)CO [DEXAMETHASONE]		IC50 (Progesterone receptor): > 2000 nM
COC(=O)[C@H](Cc1c[nH]c2ccccc12)NS(=O)(=O)c1c(C)cc(C)cc1C	> 2000	
CC(Cc1c[nH]c2ccccc12)NS(=O)(=O)c1ccccc1Cl (configuration not stated)	4100	
Cc1cc(C)c(C(=O)NC(C)Cc2c[nH]c3ccccc23)c(C)c1 (configuration not stated)	> 2000	
Cc1cccc(Cl)c1S(=O)(=O)NC(C)Cc1c[nH]c2ccccc12 (configuration not stated)	280	
Cc1cc(C)c(S(=O)(=O)N[C@H](C)Cc2c[nH]c3ccccc23)c(C)c1	> 2000	IC50 [1]: 520 nM; IC50 (Progesterone receptor): > 2000 nM
Cc1cc(S(=O)(=O)NC(C)Cc2c[nH]c3ccccc23)c(C)cc1Cl (configuration not stated)	1800	
CC(Cc1c[nH]c2ccccc12)NS(=O)(=O)c1cc(F)c(Br)cc1F (configuration not stated)	3600	
CC(Cc1cn(C)c2ccccc12)NS(=O)(=O)c1c(Cl)cc(Cl)cc1Cl (configuration not stated)	> 2000	
Cc1cc(C)c(S(=O)(=O)NCCc2c[nH]c3ccccc23)c(C)c1	> 2000	
